How the values were obtained:
Assay in all cases: NCI-60 SRB screen;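 as to IC50: half-maximal inhibitory concentration read as cell viability unlike GI50 net growth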
HCC-2998 = format: cell-based, human; conditions: Homo sapiens; HCC-2998; single dose 10^−5 M; read-out: Growth inhibition (%)
SF-295 = format: cell-based, human; conditions: SF-295
SN12C = format: cell-based, human; conditions: SN12C
SK-MEL-5 = format: cell-based, human; conditions: SK-MEL-5
NCI-H322M = format: cell-based, human
HL-60(TB) = format: cell-based, human
SR = format: cell-based
UO-31 = format: cell-based, human; conditions: UO-31
HOP-92 = format: cell-based, human; conditions: HOP-92
A549/ATCC = format: cell-based, human
ACHN = format: cell-based
SK-MEL-28 = format: cell-based; conditions: SK-MEL-28
LOX IMVI = format: cell-based, human
786-0 = format: cell-based; conditions: 786-0
RXF 393 = format: cell-based, human; conditions: RXF 393
KM12 = format: cell-based, human; conditions: KM12
MOLT-4 = format: cell-based; conditions: MOLT-4
HCT-116 = format: cell-based, human; conditions: HCT-116
CCRF-CEM = format: cell-based
SK-OV-3 = format: cell-based, human; conditions: SK-OV-3
TK-10 = format: cell-based, human; conditions: TK-10
K-562 = format: cell-based, human; conditions: K-562
[1] = Homo sapiens, single dose 10^−5 M, read-out: Growth inhibition (%)

Q: `N#CC1C(=O)NC(c2ccccc2[N+](=O)[O-])c2sc3c(F)cccc3c21` (stereo not shown) [Compound 5c, 4-Cyano-8-fluoro-1-(2-nitrophenyl)-1,2-dihydro[1]benzothieno[2,3-c] pyridin-3(4H)-one] was tested. Which inhibition at 10 µM (HCC-2998) did it give?
A: 6.16%

Q: What about the GI50 (SF-295; Homo sapiens, five dose) of the same compound?
A: 0.6 µM

Q: And the IC50 (SF-295; Homo sapiens, five dose)?
A: 10.5 µM

Q: And the inhibition at 10 µM (SF-295; [1])?
A: 79.2%

Q: What about the TGI (SF-295; five dose) of the same compound?
A: 100 µM

Q: And the inhibition at 10 µM (SN12C; Homo sapiens, SN 12 C, single dose 10^−5 M, read-out: Growth inhibition (%))?
A: 20.9%

Q: What about the GI50 (SN12C; Homo sapiens, five dose) of the same compound?
A: 18.6 µM

Q: What about the IC50 (SN12C; Homo sapiens, five dose) of the same compound?
A: 34.7 µM

Q: What about the TGI (SN12C; five dose) of the same compound?
A: 100 µM

Q: What about the GI50 (SK-MEL-5; Homo sapiens, five dose) of the same compound?
A: 13 µM

Q: What about the IC50 (SK-MEL-5; Homo sapiens, five dose) of the same compound?
A: 20.9 µM

Q: And the inhibition at 10 µM (SK-MEL-5; [1])?
A: 24.9%

Q: What about the TGI (SK-MEL-5; five dose) of the same compound?
A: 67.60 µM

Q: And the GI50 (NCI-H322M; Homo sapiens, five dose)?
A: 7.37 µM

Q: What about the IC50 (NCI-H322M; Homo sapiens, five dose) of the same compound?
A: 23.4 µM

Q: And the inhibition at 10 µM (NCI-H322M; [1])?
A: 98%

Q: And the TGI (NCI-H322M; five dose)?
A: 100 µM

Q: What about the TGI (HL-60(TB); HL-60(TB), five dose) of the same compound?
A: 100 µM

Q: And the GI50 (HL-60(TB); Homo sapiens, HL-60)?
A: 14.2 µM

Q: What about the IC50 (HL-60(TB); Homo sapiens, HL-60) of the same compound?
A: 28.2 µM

Q: And the inhibition at 10 µM (HL-60(TB); Homo sapiens, HL-60, read-out: Growth inhibition (%))?
A: 18.8%

Q: And the GI50 (SR; Homo sapiens, five dose)?
A: 14.1 µM

Q: And the IC50 (SR; Homo sapiens, five dose)?
A: 25.1 µM

Q: What about the LC50 (SR; Homo sapiens, five dose) of the same compound?
A: > 100 µM

Q: And the inhibition at 10 µM (SR; [1])?
A: 33.2%

Q: And the TGI (SR; five dose)?
A: 100 µM

Q: And the GI50 (UO-31; Homo sapiens, five dose)?
A: 10.7 µM

Q: And the IC50 (UO-31; Homo sapiens, five dose)?
A: 19.5 µM

Q: And the inhibition at 10 µM (UO-31; [1])?
A: 46.2%

Q: And the TGI (UO-31; five dose)?
A: 55.20 µM

Q: What about the TGI (HOP-92; five dose) of the same compound?
A: 100 µM

Q: What about the GI50 (HOP-92; Homo sapiens, five dose) of the same compound?
A: 12.6 µM

Q: And the IC50 (HOP-92; Homo sapiens, five dose)?
A: 79.4 µM

Q: What about the inhibition at 10 µM (HOP-92; [1]) of the same compound?
A: 115%

Q: And the GI50 (A549/ATCC; Homo sapiens, five dose)?
A: 1.31 µM

Q: And the IC50 (A549/ATCC; Homo sapiens, five dose)?
A: 2.34 µM

Q: What about the inhibition at 10 µM (A549/ATCC; [1]) of the same compound?
A: 52.8%

Q: And the TGI (A549/ATCC; five dose)?
A: 100 µM

Q: And the GI50 (ACHN; Homo sapiens, five dose)?
A: 15.7 µM

Q: And the IC50 (ACHN; Homo sapiens, five dose)?
A: 29.5 µM

Q: And the LC50 (NCI-60 lethal concentration, 50% net cell kill) (ACHN; Homo sapiens, five dose)?
A: > 100 µM

Q: What about the inhibition at 10 µM (ACHN; [1]) of the same compound?
A: 34.3%

Q: And the TGI (ACHN; five dose)?
A: 100 µM

Q: And the GI50 (SK-MEL-28; Homo sapiens, five dose)?
A: 31.2 µM

Q: And the IC50 (SK-MEL-28; Homo sapiens, five dose)?
A: 66.1 µM

Q: What about the LC50 (50% lethal concentration) (SK-MEL-28; Homo sapiens, five dose) of the same compound?
A: > 100 µM

Q: And the inhibition at 10 µM (SK-MEL-28; [1])?
A: -10.6%

Q: And the TGI (SK-MEL-28; five dose)?
A: 100 µM

Q: What about the GI50 (LOX IMVI; Homo sapiens, five dose) of the same compound?
A: 15.3 µM

Q: What about the IC50 (LOX IMVI; Homo sapiens, five dose) of the same compound?
A: 25.1 µM

Q: And the inhibition at 10 µM (LOX IMVI; [1])?
A: 8.64%

Q: What about the TGI (LOX IMVI; five dose) of the same compound?
A: 73.20 µM

Q: What about the TGI (786-0; five dose) of the same compound?
A: 100 µM

Q: What about the GI50 (786-0; Homo sapiens, five dose) of the same compound?
A: 37 µM

Q: What about the IC50 (786-0; Homo sapiens, five dose) of the same compound?
A: 77.6 µM

Q: And the LC50 (786-0; Homo sapiens, five dose)?
A: > 100 µM

Q: And the inhibition at 10 µM (786-0; [1])?
A: 10%

Q: And the GI50 (RXF 393; Homo sapiens, five dose)?
A: 11.3 µM

Q: What about the IC50 (RXF 393; Homo sapiens, five dose) of the same compound?
A: 37.2 µM

Q: What about the inhibition at 10 µM (RXF 393; [1]) of the same compound?
A: 30.1%

Q: And the TGI (RXF 393; five dose)?
A: 100 µM

Q: What about the GI50 (KM12; Homo sapiens, five dose) of the same compound?
A: 19.9 µM

Q: And the IC50 (KM12; Homo sapiens, five dose)?
A: 32.4 µM

Q: What about the inhibition at 10 µM (KM12; [1]) of the same compound?
A: 8.58%

Q: What about the TGI (KM12; five dose) of the same compound?
A: 100 µM

Q: What about the GI50 (MOLT-4; Homo sapiens, five dose) of the same compound?
A: 19.1 µM

Q: And the IC50 (MOLT-4; Homo sapiens, five dose)?
A: 30.9 µM

Q: What about the LC50 (50% lethal concentration) (MOLT-4; Homo sapiens, five dose) of the same compound?
A: > 100 µM

Q: And the inhibition at 10 µM (MOLT-4; [1])?
A: 13.5%

Q: And the TGI (MOLT-4; five dose)?
A: 100 µM

Q: And the TGI (HCT-116; five dose)?
A: 44.50 µM

Q: And the GI50 (HCT-116; Homo sapiens, five dose)?
A: 0.14 µM

Q: What about the IC50 (HCT-116; Homo sapiens, five dose) of the same compound?
A: 0.195 µM

Q: What about the inhibition at 10 µM (HCT-116; [1]) of the same compound?
A: 89%

Q: What about the GI50 (CCRF-CEM; Homo sapiens, five dose) of the same compound?
A: 26.3 µM

Q: What about the IC50 (CCRF-CEM; Homo sapiens, five dose) of the same compound?
A: 37.2 µM

Q: And the LC50 (CCRF-CEM; Homo sapiens, five dose)?
A: > 100 µM

Q: And the inhibition at 10 µM (CCRF-CEM; [1])?
A: 13.2%

Q: And the TGI (CCRF-CEM; five dose)?
A: 100 µM

Q: And the GI50 (SK-OV-3; Homo sapiens, five dose)?
A: 12 µM

Q: What about the IC50 (SK-OV-3; Homo sapiens, five dose) of the same compound?
A: 44.7 µM

Q: What about the inhibition at 10 µM (SK-OV-3; [1]) of the same compound?
A: 28.2%

Q: And the TGI (SK-OV-3; five dose)?
A: 100 µM

Q: And the GI50 (TK-10; Homo sapiens, five dose)?
A: 17.7 µM

Q: What about the IC50 (TK-10; Homo sapiens, five dose) of the same compound?
A: 72.4 µM

Q: What about the inhibition at 10 µM (TK-10; [1]) of the same compound?
A: 58.9%

Q: And the TGI (TK-10; five dose)?
A: 100 µM

Q: And the GI50 (K-562; Homo sapiens, K562, five dose)?
A: 1.98 µM

Q: And the IC50 (K-562; Homo sapiens, K562, five dose)?
A: 3.16 µM

Q: And the inhibition at 10 µM (K-562; Homo sapiens, K562, single dose 10^−5 M, read-out: Growth inhibition (%))?
A: 64.1%

Q: And the TGI (K-562; five dose)?
A: 100 µM
